In patent US4714702A, “Quinazolinone derivative” (Tanabe Seiyaku Co., Ltd., priority 1983, dated 1987):

Columns and labels:
Assay type in all cases: in vivo, male mice (ddY-strain)
mice [1] = experiment: Acute toxicity (oral, 72 hours); settings: for Safety margin (LD50 /ED50): potency ratio of the acute toxicity to the muscle relaxing activity, oral, mice
Procedure: (§1) A test compound dissolved or suspended in an aqueous 0.5% carboxymethylcellulose sodium salt solution was administered orally to a group of six male mice (ddY-strain, body weight: 18-20 g). The 50% lethal dose (LD50) of the test compound was calculated according to the probit method from the number of mice which died within a period of 72 hours after administration.

mice [2] = experiment: Muscle relaxing activity (the rotating rod method)
Procedure: A test compound dissolved or suspended in an aqueous 0.5% carboxymethylcellulose sodium salt solution was administered orally to a group of three male mice (ddY-strain, body weight: 18-20 g). After administration of the test compound, the mice were placed on a rotating rod (3.5 cm in diameter, 7.5 r.p.m.) at intervals, and the number of mice which fell out of the rod at least twice within one minute was counted. The 50% effective dose (ED50) of the test compound was calculated therefrom according to the probit method.

[3] = Acute toxicity (oral, 72 hours); settings: mouse, in vivo; oral, mice, deaths within 72 hours, probit method
Procedure: as §1

Row | SMILES | Safety margin (LD50 /ED50) (mice [1]) | ED50 (mice [2]; Mus musculus, oral, mice, rotating rod, probit method) [mg/kg] | muscle relaxing activity, times stronger than that of Mephenesin (mice [2]; rotating rod method (mice), relative to Mephenesin) | LD50 at 72 h [3] [mg/kg] | safety margin, times as high as that of Mephenesin (mice [1]; acute toxicity to muscle relaxing activity ratio, relative to Mephenesin)
1 | Cc1ccccc1OCC(O)CO (stereo not drawn) [Mephenesin, 3-(o-tolyloxy)-1,2-propanediol, reference compound] | 4.06 | – | – | – | –
2 | Cc1cc(Cl)ccc1-n1c(CF)nc2ccc(N)cc2c1=O [Test compound 1, 2-fluoromethyl-3-(2-methyl-4-chlorophenyl)-6-amino-4(3H)-quinazolinone] | 51.6 | 13.6 | about 36.6 times | 702 | about 12.7 times
